Earlier results in patent US5349105A, “Alkyl, alkoxy and thioalkoxy substituted diphenyl acetylenes having retinoid like activity” (Allergan, Inc., priority 1993, dated 1994).

Tested on: ornithine decarboxylase (ODC)
Settings: literature background

SMILES | induction of ODC activity (in words) (TPA as inducer) | inhibition of induction of ODC activity by TPA (in words) (retinoic acid)
CCCCCCCCCCCCCC(=O)O[C@@H]1[C@@H](C)[C@@]2(O)[C@@H](C=C(CO)C[C@]3(O)C(=O)C(C)=C[C@@H]23)[C@@H]2C(C)(C)[C@]12OC(C)=O [12-0-tetradecanoyl-phorbol-13-acetate] | induces ODC activity | –
CC1=C(/C=C/C(C)=C/C=C/C(C)=C/C(=O)O)C(C)(C)CCC1 [Retinoic acid] | – | inhibits this induction of ODC activity by TPA
